This note sets out measurements from ChEMBL document CHEMBL4130363, “Synthesis and pharmacological evaluation of benzamide derivatives as potent and selective sigma-1 protein ligands” (Eur J Med Chem, 2017).

Assay [1] deals with T1, 5-hydroxytryptamine receptor 2C (Homo sapiens) (UniProt P28335).
T1 sequence (whole entry): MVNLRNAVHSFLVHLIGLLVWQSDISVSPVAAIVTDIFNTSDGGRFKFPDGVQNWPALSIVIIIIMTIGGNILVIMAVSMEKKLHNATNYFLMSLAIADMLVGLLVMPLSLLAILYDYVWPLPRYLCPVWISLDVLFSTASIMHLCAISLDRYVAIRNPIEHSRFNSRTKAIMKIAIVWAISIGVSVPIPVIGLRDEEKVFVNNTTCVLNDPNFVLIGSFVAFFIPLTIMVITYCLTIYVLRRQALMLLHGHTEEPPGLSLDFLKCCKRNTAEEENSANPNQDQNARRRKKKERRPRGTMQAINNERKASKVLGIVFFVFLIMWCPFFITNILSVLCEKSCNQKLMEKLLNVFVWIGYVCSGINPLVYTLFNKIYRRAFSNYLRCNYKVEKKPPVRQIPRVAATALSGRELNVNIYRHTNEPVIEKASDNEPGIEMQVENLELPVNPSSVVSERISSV
Description: Agonist activity at recombinant human 5-HT2C at 10 uM by aequorin reporter based assay relative to agonist. It counts as functional.

Assay [2] addresses T2, 5-hydroxytryptamine receptor 3A (Homo sapiens) (UniProt P46098).
T2 sequence (whole entry): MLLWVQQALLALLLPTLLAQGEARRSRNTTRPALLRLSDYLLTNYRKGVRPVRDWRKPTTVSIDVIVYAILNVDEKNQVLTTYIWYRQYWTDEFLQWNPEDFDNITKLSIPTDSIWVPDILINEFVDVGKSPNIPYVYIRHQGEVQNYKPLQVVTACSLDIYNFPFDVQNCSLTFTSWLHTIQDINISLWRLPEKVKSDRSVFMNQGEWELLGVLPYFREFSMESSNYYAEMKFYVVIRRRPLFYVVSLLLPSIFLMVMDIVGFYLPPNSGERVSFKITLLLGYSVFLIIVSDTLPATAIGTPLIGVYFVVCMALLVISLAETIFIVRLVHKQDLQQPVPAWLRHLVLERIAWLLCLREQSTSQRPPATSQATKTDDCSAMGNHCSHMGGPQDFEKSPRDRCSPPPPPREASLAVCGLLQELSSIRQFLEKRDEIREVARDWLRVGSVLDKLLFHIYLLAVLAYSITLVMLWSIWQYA
In words: Agonist activity at recombinant human 5-HT3 at 10 uM by aequorin reporter based assay relative to agonist.

Assay [3] deals with Histamine H2 receptor (Homo sapiens) (UniProt P25021). In words: Agonist activity at recombinant human histamine H2 receptor assessed as induction of cAMP levels at 10 uM by HTRF assay relative to agonist. It counts as functional. (Changes in cAMP serve as a functional read-out for many G protein-coupled receptors.)
Histamine H2 receptor (Homo sapiens), sequence (P25021 whole entry): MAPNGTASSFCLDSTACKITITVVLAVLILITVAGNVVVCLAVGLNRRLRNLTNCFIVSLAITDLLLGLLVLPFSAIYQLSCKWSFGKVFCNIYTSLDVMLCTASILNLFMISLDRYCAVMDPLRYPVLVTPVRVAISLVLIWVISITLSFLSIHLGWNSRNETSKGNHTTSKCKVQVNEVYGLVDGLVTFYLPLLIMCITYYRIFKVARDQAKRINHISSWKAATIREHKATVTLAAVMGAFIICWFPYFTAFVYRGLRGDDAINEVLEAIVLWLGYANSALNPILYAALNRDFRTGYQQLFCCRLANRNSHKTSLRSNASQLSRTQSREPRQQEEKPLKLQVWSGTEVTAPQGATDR
The target in assay [4] is T3, Muscarinic acetylcholine receptor M2 (Homo sapiens) (UniProt P08172).
T3 sequence (whole entry): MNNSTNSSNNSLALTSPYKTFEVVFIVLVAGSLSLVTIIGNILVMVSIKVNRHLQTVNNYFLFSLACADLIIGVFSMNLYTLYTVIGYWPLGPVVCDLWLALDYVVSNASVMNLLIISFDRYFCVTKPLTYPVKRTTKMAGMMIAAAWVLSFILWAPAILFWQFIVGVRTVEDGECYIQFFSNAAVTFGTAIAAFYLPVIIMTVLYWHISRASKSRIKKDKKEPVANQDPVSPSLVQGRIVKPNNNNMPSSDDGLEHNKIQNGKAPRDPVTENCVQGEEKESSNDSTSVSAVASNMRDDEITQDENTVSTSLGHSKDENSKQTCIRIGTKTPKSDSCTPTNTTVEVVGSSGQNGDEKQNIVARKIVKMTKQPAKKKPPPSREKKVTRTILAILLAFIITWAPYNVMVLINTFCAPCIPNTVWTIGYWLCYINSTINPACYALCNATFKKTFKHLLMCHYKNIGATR
Description: Agonist activity at recombinant human muscarinic M2 receptor at 10 uM by GTPgamma[35S] binding-based assay relative to agonist. In kind it is functional.

The target of assay [5] is Muscarinic acetylcholine receptor M3 (Homo sapiens) (UniProt P20309). Description: Agonist activity at recombinant human muscarinic M3 receptor at 10 uM by aequorin reporter based assay relative to agonist. It counts as functional.
Muscarinic acetylcholine receptor M3 (Homo sapiens), sequence (P20309 whole entry, looked up): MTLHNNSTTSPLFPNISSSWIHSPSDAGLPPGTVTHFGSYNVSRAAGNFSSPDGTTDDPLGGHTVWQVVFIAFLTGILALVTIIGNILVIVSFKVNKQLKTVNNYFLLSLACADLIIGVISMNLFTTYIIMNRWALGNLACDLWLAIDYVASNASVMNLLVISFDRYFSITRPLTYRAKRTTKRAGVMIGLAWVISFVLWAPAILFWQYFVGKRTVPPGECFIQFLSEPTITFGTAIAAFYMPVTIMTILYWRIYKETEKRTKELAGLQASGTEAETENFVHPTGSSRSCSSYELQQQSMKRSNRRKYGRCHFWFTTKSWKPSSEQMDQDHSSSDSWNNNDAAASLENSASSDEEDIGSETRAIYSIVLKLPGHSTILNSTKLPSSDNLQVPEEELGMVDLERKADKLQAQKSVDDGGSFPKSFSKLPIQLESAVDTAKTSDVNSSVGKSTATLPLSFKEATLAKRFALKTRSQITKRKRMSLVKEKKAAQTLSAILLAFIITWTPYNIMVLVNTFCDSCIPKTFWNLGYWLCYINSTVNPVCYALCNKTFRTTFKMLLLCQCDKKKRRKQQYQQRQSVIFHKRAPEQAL
Assay [6] has as its target T4, Substance-K receptor (Homo sapiens) (UniProt P21452).
T4 sequence (whole entry): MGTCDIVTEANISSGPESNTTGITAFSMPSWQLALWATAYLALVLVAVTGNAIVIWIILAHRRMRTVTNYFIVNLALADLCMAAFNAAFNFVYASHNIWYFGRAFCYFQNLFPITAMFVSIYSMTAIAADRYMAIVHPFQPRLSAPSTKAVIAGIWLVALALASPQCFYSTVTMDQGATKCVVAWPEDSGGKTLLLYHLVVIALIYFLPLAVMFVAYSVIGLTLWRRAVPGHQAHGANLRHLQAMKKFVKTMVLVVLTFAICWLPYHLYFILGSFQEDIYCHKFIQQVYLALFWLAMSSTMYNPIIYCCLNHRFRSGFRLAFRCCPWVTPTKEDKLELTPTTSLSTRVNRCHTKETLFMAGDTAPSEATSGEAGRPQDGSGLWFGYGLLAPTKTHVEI
In words: Antagonist activity at recombinant human NK2R assessed as inhibition of agonist-induced effect at 10 uM by aequorin reporter based assay. In kind it is functional.

Assay [7] deals with T5, Neuropeptide Y receptor type 1 (Homo sapiens) (UniProt P25929).
T5 sequence (whole entry): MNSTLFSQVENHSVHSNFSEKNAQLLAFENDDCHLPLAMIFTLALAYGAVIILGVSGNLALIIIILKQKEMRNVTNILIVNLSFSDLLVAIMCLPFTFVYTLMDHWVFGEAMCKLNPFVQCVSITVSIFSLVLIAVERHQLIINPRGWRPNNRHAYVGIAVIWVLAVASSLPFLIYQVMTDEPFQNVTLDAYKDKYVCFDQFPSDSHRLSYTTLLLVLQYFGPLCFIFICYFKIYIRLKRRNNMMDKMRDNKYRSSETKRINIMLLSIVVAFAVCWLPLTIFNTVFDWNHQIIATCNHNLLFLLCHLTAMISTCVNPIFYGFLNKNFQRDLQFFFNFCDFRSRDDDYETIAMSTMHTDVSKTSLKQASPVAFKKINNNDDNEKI
Description: Agonist activity at recombinant human NPY1R assessed as induction of cAMP levels at 10 uM by HTRF assay relative to agonist. It counts as functional.

For assay [8], the target named is Somatostatin receptor type 4 (Homo sapiens) (UniProt P31391). In words: Antagonist activity at human somatostatin receptor 4 assessed as inhibition of agonist-induced effect at 10 uM by GTPgamma[35S] binding-based assay. In kind it is functional. (In general: Binding of GTPγS marks nucleotide exchange on a G protein.)
Somatostatin receptor type 4 (Homo sapiens), sequence (P31391 whole entry): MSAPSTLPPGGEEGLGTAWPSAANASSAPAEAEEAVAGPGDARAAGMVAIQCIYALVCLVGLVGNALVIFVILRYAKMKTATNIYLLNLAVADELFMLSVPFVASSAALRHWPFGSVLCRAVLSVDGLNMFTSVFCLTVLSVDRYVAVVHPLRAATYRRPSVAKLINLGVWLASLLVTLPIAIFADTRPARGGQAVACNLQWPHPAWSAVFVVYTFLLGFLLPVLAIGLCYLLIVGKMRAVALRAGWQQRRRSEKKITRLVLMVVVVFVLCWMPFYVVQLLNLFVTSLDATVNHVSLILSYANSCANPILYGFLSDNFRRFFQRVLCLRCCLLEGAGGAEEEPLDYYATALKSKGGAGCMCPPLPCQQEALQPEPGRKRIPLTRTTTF

What is called inhibition is the relative decrease from the control value, in per cent. Turning to `CN(CCNC(=O)c1ccc([N+](=O)[O-])cc1)Cc1ccccc1`, the Activity was 13% in assay [1]; 0% in assay [2]; 9% in assay [3]; -1% in assay [4]; 0% in assay [5]; 3% in assay [7]. Moreover, the results for the inhibition in assay [6] and in assay [8] were 15% and 30%, respectively.

On to `CN(CCCNC(=O)c1cccc(Br)c1)Cc1ccccc1`, for which the Activity in assay [1] is -3%; in assay [2], 0%; in assay [3], -3%; in assay [4], -11%; in assay [5], -2%; in assay [7] it was 1%. Also, the inhibition in assay [6] came out at 9%; in assay [8], 21%.

Consider `CCCc1ccc(C(=O)NCCCN(C)Cc2ccccc2)cc1`, for which the Activity in assay [1] is 63%; in assay [2] it was -1%; in assay [3], 1%; in assay [4], -9%; in assay [5], -2%; in assay [7], 2%. Besides, the inhibition in assay [6] was 5%; in assay [8], 31%.

In the case of `CN(CCCNC(=O)c1ccc(Br)cc1)Cc1ccccc1`, the Activity was 11% in assay [1]; 1% in assay [2]; -8% in assay [3]; -3% in assay [4]; 1% in assay [5]; 5% in assay [7]. Moreover, the inhibition came to 7% in assay [6] and 4% in assay [8].

`COc1ccc(C(=O)NCCCN(C)Cc2ccccc2)cc1`: the Activity in assay [1] was 5%; in assay [2], 0%; in assay [3] it was 9%; in assay [4], -3%; in assay [5], 1%; in assay [7], 1%. The inhibition in assay [6] came out at 22%; in assay [8], 25%.

Consider `CN(CCCNC(=O)c1ccc(Cl)cc1)Cc1ccccc1`, for which the Activity in assay [1] was 12%; in assay [2], 2%; in assay [3], -10%; in assay [4], -9%; in assay [5], 2%; in assay [7], 2%. The inhibition was found to be 18% in assay [6] and 20% in assay [8].

As for `CN(CCCNC(=O)c1ccc([N+](=O)[O-])cc1)Cc1ccccc1`, the Activity in assay [1] is 2%; in assay [2], 0%; in assay [3], -7%; in assay [4] it was -6%; in assay [5] it was -2%; in assay [7], 1%. For the same compound, the inhibition was 9% in assay [6] and 15% in assay [8].

For the compound `CN(CCCNC(=O)c1ccc(C(F)(F)F)cc1)Cc1ccccc1`, the Activity was -7% in assay [1]; -1% in assay [2]; -7% in assay [3]; -9% in assay [4]; -2% in assay [5]; 9% in assay [7]. The inhibition in assay [6] is 6%; in assay [8] it was 17%.

Regarding `CN(CCNC(=O)c1ccc(C#N)cc1)Cc1ccccc1`, the Activity is -1% in assay [1]; 0% in assay [2]; -3% in assay [3]; -3% in assay [4]; 0% in assay [5]; 4% in assay [7]. The inhibition in assay [6] is 29%; in assay [8] it was 34%.

`CN(CCCNC(=O)c1ccc(Cl)cc1)CCc1ccccc1`: the Activity in assay [1] is 75%; in assay [2], -1%; in assay [3] it was 15%; in assay [4], -10%; in assay [5], -1%; in assay [7] it was -4%. The inhibition in assay [6] is 5%; in assay [8], -3%.

For `CN(CCNC(=O)c1ccc(Cl)cc1)Cc1ccccc1`, the Activity is 62% in assay [1]; 0% in assay [2]; -7% in assay [3]; -5% in assay [4]; 0% in assay [5]; -2% in assay [7]. For the same compound, the inhibition in assay [6] was 6%; in assay [8], 21%.

With `COc1cccc(C(=O)NCCCN(C)Cc2ccccc2)c1`, the Activity in assay [1] is 5%; in assay [2], 0%; in assay [3], 10%; in assay [4] it was -1%; in assay [5], 0%; in assay [7], 0%. Also, the figures for the inhibition in assay [6] and in assay [8] were 19% and 25%, respectively.
